Data from patent publication US11254671B2, “Chemical compounds” (GLAXOSMITHKLINE INTELLECTUAL PROPERTY DEVELOPMENT LIMITED, priority 2017, dated 2022).
Values joined by “and” are separate entries in the source; they are usually repeats but may differ in a detail not shown here. Equal entries are not always repeated.

Target: T1, mTOR (Homo sapiens, UniProt P42345)
T1 construct: capturing of endogenously expressed target proteins from cell extracts by a bead-immobilized capturing ligand; endogenous in cells; host or cells: HuT-78 cells (ECACC 88041901), cell lysate
Assay: mTOR kinobeads assay (competition-binding assay)
Details: HuT-78 cell extract, endogenously expressed mTOR, bead-immobilized capturing ligand; mean of multiple experiments; read-out: mean pIC50, affinity for mTOR (converted)
Experimental: The affinity of test compounds for mTOR was determined in the mTOR kinobeads assay. This is a competition-binding assay based on the capturing of endogenously expressed target proteins from cell extracts by a bead-immobilized capturing ligand in presence of the test compound.
HuT-78 cells (European Collection of Authenticated Cell Cultures, 88041901) were cultured according to vendor's instructions. Frozen cell pellets were homogenized in 3× pellet volumes lysis buffer (50 mM Tris-HCl, 0.4% (v/v) Igepal-CA630, 5% glycerol, 150 mM NaCl, 1.5 mMMgCl2, 25 mM NaF, 1 mM sodium vanadate, 1 mM DTT, pH 7.5, supplemented with EDTA-free protease inhibitor tablet (Roche)). The sample was dispersed using a Dounce homogenizer, kept rotating for 30 min at 4° C., and centrifuged for 10 min at 20 000 g at 4° C. The supernatant was centrifuged again for 1 h at 145 000 g. The protein concentration was determined by Bradford assay (BioRad), aliquots were snap frozen in liquid nitrogen and stored at −80° C.
The capturing matrices were generated by derivatizing N-hydroxysuccinimide (NHS) activated Sepharose 4 beads (GE Healthcare) with the functionalized ligands Compound A and Compound C at a ligand density of 5 mM. Remaining NHS-groups were blocked with ethanolamine.
For the mTOR kinobeads assay the matrices were combined in a 1:1 ratio and equilibrated in DP buffer (50 mM Tris-HCl (pH 7.5), 0.4% (v/v) Igepal-CA630, 5% (v/v) glycerol, 150 mM NaCl, 1.5 mM MgCl2, 25 mM NaF, 1 mM Na3VO4, 1 mM dithiothreitol). All steps of the mTOR kinobeads assay were performed at 4° C. or on ice. The cell lysate was diluted with DP buffer to a final concentration of 5 mg/ml and a final detergent concentration of 0.4% (v/v) Igepal-CA630. For the assay 250 μg cell lysate and 2.5 μl capturing matrix per well (final assay volume: 75 μl) were incubated in the presence of test compounds in a 384-well filter plate (MultiScreenHTS HV Filter Plate, 0.45 μm, MZHVNOW50, Merck Millipore). Each plate contained 16 positive (100 μM Compound B) and 16 negative (2% v/v DMSO) control wells. Compounds were tested in a concentration-response applying 1:3 or 1:4 dilution steps for in total 11 data points. DMSO concentration was 2% (v/v). After 2 h incubation on an overhead shaker (Roto-Shake Genie, Scientific Industries Inc.) at 4° C. the non-bound fraction was removed by washing the beads with DP buffer. Proteins retained on the beads were eluted in SDS sample buffer (200 mM Tris (pH 7.4), 250 mM Trizma Base, 4% (w/v) SDS, 20% (v/v) glycerol, 0.01% (w/v) bromophenol blue, 50 mM dithiothreitol) into a collection plate (384 well polypropylene microplate, V-shape, Greiner, 781 280). Eluates were spotted on nitrocellulose membranes (400 nl per spot) using an automated pin-tool liquid transfer (Biomek FX, Beckman). After drying, the membranes were rehydrated in 20% (v/v) ethanol and blocked by incubation with Odyssey blocking buffer (LICOR, 927-40000) for 1 h at room temperature. Blocked membranes were incubated overnight at 25° C. with Odyssey blocking buffer supplemented with a specific anti-mTOR antibody (Cell Signaling, 2972; 1:500) and 0.4% TWEEN-20. Then the membranes were washed in PBST buffer and incubated for 60 minutes at room temperature with the detection antibody (IRDye™ labelled antibody from LI-COR) diluted in Odyssey blocking buffer (LICOR 927-40000) containing 0.2% TWEEN-20. Then the membranes were washed with PBST and finally rinsed twice with PBS buffer to remove residual Tween-20. The membranes were then scanned with the Odyssey® Infrared Imaging System (LI-COR Biosciences). Fluorescence signals were recorded and analyzed according to the instructions of the manufacturer. Concentration response curves were computed with the software Activity Base. All data were normalized to the mean of 16 high (negative control) and 16 low (positive control) control wells on each plate. […]

SMILES | IC50
CNCc1cc2nc(-c3cc(C(C)(C)S(C)(=O)=O)cc(N4C5CCCC4COC5)n3)ccc2[nH]1 [Example 5, 1-(5-(6-(3-oxa-9-azabicyclo[3.3.1]nonan-9-yl)-4-(2-(methylsulfonyl)propan-2-yl)pyridin-2-yl)-1H-pyrrolo[3,2-b]pyridin-2-yl)-N-methylmethanamine] | 2.51 to 316 nM
CC[C@H]1COCCN1c1cc(C(C)(C)S(=O)(=O)C2CC2)cc(-c2ccc3[nH]c(CNC)cc3n2)n1 [Example 9, (S)-1-(5-(4-(2-(cyclopropylsulfonyl)propan-2-yl)-6-(3-ethylmorpholino)pyridin-2-yl)-1H-pyrrolo[3,2-b]pyridin-2-yl)-N-methylmethanamine] | 2.51 to 316 nM
CC[C@H]1COCCN1c1cc(CS(=O)(=O)N(C)C)cc(-c2ccc3[nH]c(CNC)cc3n2)n1 [Example 17, (S)-1-(2-(3-ethylmorpholino)-6-(2-((methylamino)methyl)-1H-pyrrolo[3,2-b]pyridin-5-yl)pyridin-4-yl)-N,N-dimethylmethanesulfonamide] | 2.51 to 31.6 nM and 2.51 to 316 nM
CNCc1cc2nc(-c3cc(C4(S(C)(=O)=O)CCOCC4)cc(N4C5CCC4COC5)n3)ccc2[nH]1 [Example 40, ({5-[4-(4-methanesulfonyloxan-4-yl)-6-{3-oxa-8-azabicyclo[3.2.1]octan-8-yl}pyridin-2-yl]-1H-pyrrolo[3,2-b]pyridin-2-yl}methyl)(methyl)amine] | 2.51 to 316 nM
CC[C@H]1COCCN1c1cc(CS(=O)(=O)C2CC2)cc(-c2ccc3[nH]c(CNC)cc3n2)n1 [Example 10, (S)-1-(5-(4-((cyclopropylsulfonyl)methyl)-6-(3-ethylmorpholino)pyridin-2-yl)-1H-pyrrolo[3,2-b]pyridin-2-yl)-N-methylmethanamine] | 2.51 to 31.6 nM and 2.51 to 316 nM
CC[C@H]1COCCN1c1cc(C(C)(C)S(C)(=O)=O)cc(-c2ccc3[nH]c(CN)cc3n2)n1 [Example 21, 1-(5-{6-[(3S)-3-ethylmorpholin-4-yl]-4-(2-methanesulfonylpropan-2-yl)pyridin-2-yl}-1H-pyrrolo[3,2-b]pyridin-2-yl)methanamine] | 2.51 to 31.6 nM and 2.51 to 316 nM
CC[C@H]1COCCN1c1cc(C2(S(C)(=O)=O)CCOCC2)cc(-c2ccc3[nH]c(CO)cc3n2)n1 [Example 33, (5-{6-[(3S)-3-ethylmorpholin-4-yl]-4-(4-methanesulfonyloxan-4-yl)pyridin-2-yl}-1H-pyrrolo[3,2-b]pyridin-2-yl)methanol] | 2.51 to 31.6 nM and 2.51 to 316 nM
CNCc1cc2nc(-c3cc(C(F)(F)S(C)(=O)=O)cc(N4CCOC[C@@H]4C)n3)ccc2[nH]1 [Example 12, (S)-1-(5-(4-(difluoro(methylsulfonyl)methyl)-6-(3-methylmorpholino)pyridin-2-yl)-1H-pyrrolo[3,2-b]pyridin-2-yl)-N-methylmethanamine] | 2.51 to 316 nM
CNCc1cc2nc(-c3cc(C(C)(C)S(C)(=O)=O)cc(N4[C@@H]5CC[C@H]4COC5)n3)ccc2[nH]1 [Example 3, 1-(5-(6-((1R,5S)-3-oxa-8-azabicyclo[3.2.1]octan-8-yl)-4-(2-(methylsulfonyl)propan-2-yl)pyridin-2-yl)-1H-pyrrolo[3,2-b]pyridin-2-yl)-N-methylmethanamine] | 2.51 to 316 nM

Next, values leading:

IC50 | SMILES
2.51 to 31.6 nM and 2.51 to 316 nM | CC[C@H]1COCCN1c1cc(C(C)(C)S(C)(=O)=O)cc(-c2ccc3[nH]c(CO)cc3n2)n1 [Example 32]
2.51 to 31.6 nM and 2.51 to 316 nM | CC[C@H]1COCCN1c1cc(C(C)(C)S(N)(=O)=O)cc(-c2ccc3[nH]c(CNC)cc3n2)n1 [Example 28, 2-{2-[(3S)-3-ethylmorpholin-4-yl]-6-{2-[(methylamino)methyl]-1H-pyrrolo[3,2-b]pyridin-5-yl}pyridin-4-yl}propane-2-sulfonamide]
2.51 to 316 nM | CNCc1cc2nc(-c3cc(C4(S(C)(=O)=O)CC4)cc(N4CCOC[C@@H]4C)n3)ccc2[nH]1 [Example 20, ({5-[4-(1-methanesulfonylcyclopropyl)-6-[(3S)-3-methylmorpholin-4-yl]pyridin-2-yl]-1H-pyrrolo[3,2-b]pyridin-2-yl}methyl)(methyl)amine]
2.51 to 31.6 nM and 2.51 to 316 nM | CNCc1cc2nc(-c3cc(CS(C)(=O)=O)cc(N4CC5CCC(C4)O5)n3)ccc2[nH]1 [Example 25, ({5-[4-(methanesulfonylmethyl)-6-{8-oxa-3-azabicyclo[3.2.1]octan-3-yl}pyridin-2-yl]-1H-pyrrolo[3,2-b]pyridin-2-yl}methyl)(methyl)amine]
2.51 to 31.6 nM and 2.51 to 316 nM | CC[C@H]1COCCN1c1cc(C2(S(C)(=O)=O)CCOCC2)cc(-c2ccc3[nH]c(CN)cc3n2)n1 [Example 23, 1-(5-{6-[(3S)-3-ethylmorpholin-4-yl]-4-(4-methanesulfonyloxan-4-yl)pyridin-2-yl}-1H-pyrrolo[3,2-b]pyridin-2-yl)methanamine]
2.51 to 316 nM | CCS(=O)(=O)C(C)(C)c1cc(-c2ccc3[nH]c(CNC)cc3n2)nc(N2CCOC[C@@H]2C)c1 [Example 7, (S)-1-(5-(4-(2-(ethylsulfonyl)propan-2-yl)-6-(3-methylmorpholino)pyridin-2-yl)-1H-pyrrolo[3,2-b]pyridin-2-yl)-N-methylmethanamine]
2.51 to 31.6 nM and 2.51 to 316 nM | CNCc1cc2nc(-c3cc(CS(C)(=O)=O)cc(N4CCOC[C@@H]4C)n3)ccc2[nH]1 [Example 6, (S)—N-methyl-1-(5-(6-(3-methylmorpholino)-4-((methylsulfonyl)methyl)pyridin-2-yl)-1H-pyrrolo[3,2-b]pyridin-2-yl)methanamine]
2.51 to 31.6 nM and 2.51 to 316 nM | CC[C@H]1COCCN1c1cc(C2(S(=O)(=O)N(C)C)CCOCC2)cc(-c2ccc3[nH]c(CNC)cc3n2)n1 [Example 31, 4-{2-[(3S)-3-ethylmorpholin-4-yl]-6-{2-[(methylamino)methyl]-1H-pyrrolo[3,2-b]pyridin-5-yl}pyridin-4-yl}-N,N-dimethyloxane-4-sulfonamide]
2.51 to 31.6 nM and 2.51 to 316 nM | CC[C@H]1COCCN1c1cc(C2(S(C)(=O)=O)CC2)cc(-c2ccc3[nH]c(CNC)cc3n2)n1 [Example 19, [(5-{6-[(3S)-3-ethylmorpholin-4-yl]-4-(1-methanesulfonylcyclopropyl)pyridin-2-yl}-1H-pyrrolo[3,2-b]pyridin-2-yl)methyl](methyl)amine]
2.51 to 31.6 nM and 2.51 to 316 nM | CC[C@H]1COCCN1c1cc(CS(=O)(=O)N(C)C)cc(-c2ccc3[nH]c(CO)cc3n2)n1 [Example 35, 1-{2-[(3S)-3-ethylmorpholin-4-yl]-6-[2-(hydroxymethyl)-1H-pyrrolo[3,2-b]pyridin-5-yl]pyridin-4-yl}-N,N-dimethylmethanesulfonamide]
2.51 to 31.6 nM and 2.51 to 316 nM | CC[C@H]1COCCN1c1cc(CS(C)(=O)=O)cc(-c2ccc3[nH]c(CO)cc3n2)n1 [Example 34, (5-{6-[(3S)-3-ethylmorpholin-4-yl]-4-(methanesulfonylmethyl)pyridin-2-yl}-1H-pyrrolo[3,2-b]pyridin-2-yl)methanol]
2.51 to 31.6 nM and 2.51 to 316 nM | CC[C@H]1COCCN1c1cc(CS(C)(=O)=O)cc(-c2ccc3[nH]c(CNC)cc3n2)n1 [Example 13, (S)-1-(5-(6-(3-ethylmorpholino)-4-((methylsulfonyl)methyl)pyridin-2-yl)-1H-pyrrolo[3,2-b]pyridin-2-yl)-N-methylmethanamine]
2.51 to 31.6 nM and 2.51 to 316 nM | CC[C@H]1COCCN1c1cc(CS(=O)(=O)NC)cc(-c2ccc3[nH]c(CNC)cc3n2)n1 [Example 30, 1-{2-[(3S)-3-ethylmorpholin-4-yl]-6-{2-[(methylamino)methyl]-1H-pyrrolo[3,2-b]pyridin-5-yl}pyridin-4-yl}-N-methylmethanesulfonamide]
